Results: PMC7031696 (Cell chemical biology, 2019)
Read-outs that look alike come from different tables or passages of the source.

Tests used:
[1] = system: asynchronous 3D7-A10 parasite cultures; assay: Standard 72-h exposure asexual blood stage susceptibility assay (IC50^72h); assay type: cell-based, Plasmodium falciparum; details: Plasmodium falciparum, 3D7, 72 h, read-out: Overall (72hr assay) Mean IC50 (IC50^72h)
[2] = system: 3D7-MR4 trophozoite parasite-infected RBCs; assay: Metabolomic profiling (hydrophilic metabolite changes, UHPLC-MS); assay type: cell-based, Plasmodium falciparum
[3] = system: Plasmodium falciparum 3D7-A10 parasites; assay: Stage specificity assay (8-h exposure of synchronized stages, IC50^8h); assay type: cell-based; details: for IC50: Plasmodium falciparum

## COc1cncc(-c2cncc(N3CCN(c4ccncc4)CC3)n2)c1 [MMV085071]
[1]
  IC50: 105 nM
[2]; 10 × IC50^72h, 2.5 hr, trophozoites
  changes within the set of metabolites detected (low fold change group): did not induce major changes
[2]; metabolite 3-phosphoglycerate, log2 fold change
  Log2(fold changes) 3-phosphoglycerate: -0.3571
[2]; metabolite 4-Pyridoxic acid, log2 fold change
  Log2(fold changes) 4-Pyridoxic acid: 0.1725
[2]; metabolite 4-aminobutyrate, log2 fold change
  Log2(fold changes) 4-aminobutyrate: -0.2370
[2]; metabolite 4-phosphopantetheine, log2 fold change
  Log2(fold changes) 4-phosphopantetheine: 0.0000
[2]; metabolite 4-phosphopantothenate, log2 fold change
  Log2(fold changes) 4-phosphopantothenate: -0.0279
[2]; metabolite 5-aminopentanoic acid, log2 fold change
  Log2(fold changes) 5-aminopentanoic acid: 0.0000
[2]; metabolite 5-methyl-THF, log2 fold change
  Log2(fold changes) 5-methyl-THF: 0.0000
[2]; metabolite 5-phosphoribosyl-1-pyrophosphate, log2 fold change
  Log2(fold changes) 5-phosphoribosyl-1-pyrophosphate: 0.0000
[2]; metabolite 6-phospho-D-gluconate, log2 fold change
  Log2(fold changes) 6-phospho-D-gluconate: -0.0766
[2]; metabolite HVDD
  Log2(fold change) HVDD: 1.5471
[2]; metabolite Hydroxyisocaproic acid
  Log2(fold change) Hydroxyisocaproic acid: 0.0000
[2]; metabolite IDP
  Log2(fold change) IDP: 0.0000
[2]; metabolite IMP
  Log2(fold change) IMP: -0.0355
[2]; metabolite Inositol
  Log2(fold change) Inositol: 0.0000
[2]; metabolite Isopentyl-PP
  Log2(fold change) Isopentyl-PP: 0.0000
[2]; metabolite L-arginino-succinate
  Log2(fold change) L-arginino-succinate: 0.7586
[2]; metabolite LD
  Log2(fold change) LD: 1.2308
[2]; metabolite Myristoyl/tetradecanoyl-CoA
  Log2(fold change) Myristoyl/tetradecanoyl-CoA: 0.0000
[2]; metabolite N-Acetyl-L-alanine
  Log2(fold change) N-Acetyl-L-alanine: 0.1191
[2]; metabolite N-acetyl-L-ornithine
  Log2(fold change) N-acetyl-L-ornithine: 1.0380
[2]; metabolite N-acetyl-glucosamine-1/6-phosphate
  Log2(fold change) N-acetyl-glucosamine-1/6-phosphate: 0.0154
[2]; metabolite N-acetyl-glutamate
  Log2(fold change) N-acetyl-glutamate: 0.1593
[2]; metabolite N-acetyl-glutamine
  Log2(fold change) N-acetyl-glutamine: -0.2990
[2]; metabolite N-carbamoyl-L-aspartate
  Log2(fold change) N-carbamoyl-L-aspartate: 0.1424
[2]; metabolite NAD+
  Log2(fold change) NAD+: 0.0189
[2]; metabolite NADH
  Log2(fold change) NADH: 0.0000
[2]; metabolite NADP+
  Log2(fold change) NADP+: 0.1777
[2]; metabolite NADPH
  Log2(fold change) NADPH: 0.0000
[2]; metabolite O-acetyl-L-serine
  Log2(fold change) O-acetyl-L-serine: 0.0000
[2]; metabolite Octoluse 8/1P
  Log2(fold change) Octoluse 8/1P: 0.0000
[2]; metabolite Octoluse Bisphosphate
  Log2(fold change) Octoluse Bisphosphate: 0.0955
[2]; metabolite PD
  Log2(fold change) PD: 0.1245
[2]; metabolite PE
  Log2(fold change) PE: 0.4481
[2]; metabolite PEE
  Log2(fold change) PEE: 1.1300
[2]; metabolite PEEK
  Log2(fold change) PEEK: 1.3266
[2]; metabolite PVNF
  Log2(fold change) PVNF: 0.3702
[2]; metabolite Pyroglutamic acid
  Log2(fold change) Pyroglutamic acid: 0.0000
[2]; metabolite Pyrophosphate
  Log2(fold change) Pyrophosphate: 0.0000
[2]; metabolite Ribose-5-phosphate
  Log2(fold change) Ribose-5-phosphate: 0.0000
[2]; metabolite S-adenosyl-L-homocysteine
  Log2(fold change) S-adenosyl-L-homocysteine: -0.0131
[2]; metabolite S-adenosyl-L-methioninamine
  Log2(fold change) S-adenosyl-L-methioninamine: 0.0000
[2]; metabolite S-adenosyl-L-methionine
  Log2(fold change) S-adenosyl-L-methionine: 0.0000
[2]; metabolite S-methyl-5'-thioadenosine
  Log2(fold change) S-methyl-5'-thioadenosine: 0.0000
[2]; metabolite SD
  Log2(fold change) SD: 0.5330
[2]; metabolite SDL
  Log2(fold change) SDL: 0.1100
[2]; metabolite SID
  Log2(fold change) SID: -0.3348
[2]; metabolite Sedoheptulose bisphosphate
  Log2(fold change) Sedoheptulose bisphosphate: 0.0203
[2]; metabolite Thiamine pyrophosphate
  Log2(fold change) Thiamine pyrophosphate: 0.0000
[2]; metabolite UDP-D-glucose, log2 fold change
  Log2(fold changes) UDP-D-glucose: 0.0450
[2]; metabolite UDP-D-glucuronate, log2 fold change
  Log2(fold changes) UDP-D-glucuronate: 0.0222
[2]; metabolite UDP-N-acetyl-glucosamine, log2 fold change
  Log2(fold changes) UDP-N-acetyl-glucosamine: -0.1104
[2]; metabolite UDP, log2 fold change
  Log2(fold changes) UDP: 0.8151
[2]; metabolite UMP, log2 fold change
  Log2(fold changes) UMP: -0.2015
[2]; metabolite UTP, log2 fold change
  Log2(fold changes) UTP: -0.1278
[2]; metabolite hydroxyphenylpyruvate
  Log2(fold change) hydroxyphenylpyruvate: 0.0000
[2]; metabolite hydroxyproline/Aminolevulinate
  Log2(fold change) hydroxyproline/Aminolevulinate: -0.0385
[2]; metabolite hypoxanthine
  Log2(fold change) hypoxanthine: 0.0000
[2]; metabolite indole
  Log2(fold change) indole: 0.0000
[2]; metabolite inosine
  Log2(fold change) inosine: -0.0754
[2]; metabolite isoleucine
  Log2(fold change) isoleucine: -0.1140
[2]; metabolite lactate
  Log2(fold change) lactate: 0.0000
[2]; metabolite leucine
  Log2(fold change) leucine: -0.0775
[2]; metabolite lysine
  Log2(fold change) lysine: 0.0000
[2]; metabolite malate
  Log2(fold change) malate: -0.0512
[2]; metabolite maleic acid
  Log2(fold change) maleic acid: -0.0636
[2]; metabolite methionine
  Log2(fold change) methionine: 0.2308
[2]; metabolite myo-inositol
  Log2(fold change) myo-inositol: 0.0000
[2]; metabolite nicotinamide mononucleotide
  Log2(fold change) nicotinamide mononucleotide: 0.0000
[2]; metabolite nicotinate
  Log2(fold change) nicotinate: 0.2062
[2]; metabolite ornithine
  Log2(fold change) ornithine: 0.0000
[2]; metabolite orotate
  Log2(fold change) orotate: 0.3476
[2]; metabolite orotidine-5'-phosphate
  Log2(fold change) orotidine-5'-phosphate: 0.4326
[2]; metabolite oxaloacetate
  Log2(fold change) oxaloacetate: 0.0000
[2]; metabolite p-aminobenzoate
  Log2(fold change) p-aminobenzoate: 0.0000
[2]; metabolite p-hydroxybenzoate
  Log2(fold change) p-hydroxybenzoate: 0.0000
[2]; metabolite pantothenate
  Log2(fold change) pantothenate: -0.2410
[2]; metabolite phenylalanine
  Log2(fold change) phenylalanine: -0.1015
[2]; metabolite phenylpyruvate
  Log2(fold change) phenylpyruvate: 0.0000
[2]; metabolite phosphoenolpyruvate
  Log2(fold change) phosphoenolpyruvate: -0.3652
[2]; metabolite prephenate
  Log2(fold change) prephenate: 0.0000
[2]; metabolite proline
  Log2(fold change) proline: 0.0444
[2]; metabolite pyridoxine
  Log2(fold change) pyridoxine: 0.0000
[2]; metabolite pyruvate
  Log2(fold change) pyruvate: -0.4378
[2]; metabolite riboflavin
  Log2(fold change) riboflavin: -0.6618
[2]; metabolite ribose
  Log2(fold change) ribose: 0.0000
[2]; metabolite ribose-phosphate
  Log2(fold change) ribose-phosphate: -0.0725
[2]; metabolite ribulose-5-phosphate
  Log2(fold change) ribulose-5-phosphate: -0.2555
[2]; metabolite serine
  Log2(fold change) serine: 0.5038
[2]; metabolite sn-glycerol-3-phosphate
  Log2(fold change) sn-glycerol-3-phosphate: -0.1967
[2]; metabolite succinate/Methylmalonic acid
  Log2(fold change) succinate/Methylmalonic acid: -0.0635
[2]; metabolite succinyl-CoA/methylmalonyl-CoA
  Log2(fold change) succinyl-CoA/methylmalonyl-CoA: 0.0000
[2]; metabolite taurine
  Log2(fold change) taurine: 0.0000
[2]; metabolite thiamine
  Log2(fold change) thiamine: 0.0498
[2]; metabolite threonine/homoserine
  Log2(fold change) threonine/homoserine: 0.1750
[2]; metabolite thymidine
  Log2(fold change) thymidine: 0.0000
[2]; metabolite thymine, log2 fold change
  Log2(fold changes) thymine: 0.0000
[2]; metabolite trehalose-6-Phosphate, log2 fold change
  Log2(fold changes) trehalose-6-Phosphate: 0.0000
[2]; metabolite tryptophan, log2 fold change
  Log2(fold changes) tryptophan: -0.0120
[2]; metabolite tyrosine, log2 fold change
  Log2(fold changes) tyrosine: 0.0532
[2]; metabolite uridine, log2 fold change
  Log2(fold changes) uridine: 0.0000
[3]; 3D7-A10
  Ratio lowest IC50 8hr/IC50 72hr: 0.6
[3]; 3D7, read-out: Early rings Mean IC50 (IC50^8h), 8-h exposure 0–8 hr, 3D7-A10, survival at 60 h
  IC50: 893 nM
[3]; 3D7, read-out: Early trophozoites Mean IC50 (IC50^8h), 8-h exposure 16–24 hr, 3D7-A10, survival at 60 h
  IC50: 61.1 nM
[3]; 3D7, read-out: Late rings Mean IC50 (IC50^8h), 8-h exposure 8–16 hr, 3D7-A10, survival at 60 h
  IC50: 492 nM
[3]; 3D7, read-out: Late trophozoites Mean IC50 (IC50^8h), 8-h exposure 24–32 hr, 3D7-A10, survival at 60 h
  IC50: 81.4 nM
[3]; 3D7, read-out: Schizonts Mean IC50 (IC50^8h), 8-h exposure 32–40 hr, 3D7-A10, survival at 60 h
  IC50: 254 nM
[3]; stage(s) with the lowest IC50^8h
  Peak Activity (Table S1): Trophs
